What was measured:
hSERT = hSERT (Homo sapiens (Human), UniProt P31645); assay: SERT radioligand binding assay ([125I]RTI-55, HEK-293 membranes); settings: recombinant HEK-293 membranes, [125I]RTI-55; read-out: Binding Affinity (IC50, nM) SERT
Protocol: (§1) The medium was removed from the flasks and the cells rinsed with HBSS without Ca and without Mg. The cells were then incubated for 5-10 minutes in 10 mM Tris-Cl, pH 7.5, 5 mM EDTA before the cells were lifted with a combination of pipetting and scraping, as needed. The cell suspension was collected into centrifuge bottles and homogenized for 30 seconds with a Polytron homogenizer. The suspension was centrifuged for 30 minutes at 32,000×g, 4° C. The supernatant was decanted and the pellet resuspended and homogenized in 50 mM Tris-Cl, pH 7.5, 1 mM EDTA for 10 seconds. The suspension was then centrifuged again for 30 minutes at 32,000×g, 4° C. The supernatant was decanted and the pellet resuspended in 50 mM Tris-Cl, pH 7.5, 1 mM EDTA and briefly homogenized. A Bradford assay (Bio-rad) was performed and the membrane preparation diluted to 2 mg/ml with 50 mM Tris-Cl, pH 7.5, 1 mM EDTA. Aliquots were prepared, and then frozen and stored at −80° C.
Compounds were dissolved in 100% DMSO at a concentration 100 times the desired highest assay concentration, serially diluted 1:3 in 100% DMSO, and 0.4 μl/well of each solution was dispensed to a Nunc polypropylene, round bottom, 384-well plate. […] The contents of the assay plate were then transferred to a Millipore MultiscreenHTS GF/B filter plate which was pretreated with 0.5% PEI for at least one hour. The plate was vacuum filtered and washed with 7 washes of […] 50 mM Tris-Cl, pH 7.5, 120 mM NaCl, 5 mM KCl chilled to 4° C. The filtration and washing were completed in less than 90 seconds. The plates were air-dried overnight, 12 μl/well of MicroScint scintillation fluid added, and the plates counted in a Trilux.
(§2) Each plate was run in triplicate, and the concentration response curve thus generated was fit using the four-parameter dose response equation, Y=Bottom+(Top-Bottom)/(1+10^((Log IC50−X)*HillSlope)) in order to determine the IC50 value for each compound. The radioligand concentration chosen for each assay corresponds to the Kd concentration determined through saturation binding analysis for each assay.

hDAT = hDAT (Homo sapiens (Human), UniProt Q01959); assay: DAT radioligand binding assay ([125I]RTI-55, HEK-293 membranes); settings: recombinant HEK-293 membranes, [125I]RTI-55; read-out: Binding Affinity (IC50, nM) DAT
Protocol: as §1, with “Recombinant HEK-293 cells expressing either the hSERT, hDAT, or hNET proteins were harvested from T-175 flasks as follows. The medium” for “The medium”
Compounds were dissolved in 100% DMSO at a concentration 100 times the desired highest assay concentration, serially diluted 1:3 in 100% DMSO, and 0.4 μl/well of each solution was dispensed to a Nunc polypropylene, round bottom, 384-well plate. […] 20 ul/well of a 2× membrane preparation (12.5 μg/ml in 30 mM sodium phosphate buffer, pH 7.9 at 4° C.) and 20 μl/well of a 2× radioligand solution (250 pM [^125I]RTI-55 in 30 mM sodium phosphate buffer, pH 7.9 at 4° C.) were added to the well and the reaction incubated for 1 hour at room temperature. The contents of the assay plate were then transferred to a Millipore MultiscreenHTS GF/B filter plate which was pretreated with 0.5% PEI for at least one hour. The plate was vacuum-filtered and washed with 7 washes of 100 μl/well 50 mM Tris-Cl, pH 7.5, 120 mM NaCl, 5 mM KCl chilled to 4° C. The filtration and washing were completed in less than 90 seconds. The plates were air-dried overnight, 12 μl/well of MicroScint scintillation fluid added, and the plates counted in a Trilux.
as §2

hNET = hNET (Homo sapiens (Human), UniProt P23975); assay: NET radioligand binding assay ([3H]nisoxetine, HEK-293 membranes); settings: recombinant HEK-293 membranes, [3H]nisoxetine; read-out: Binding Affinity (IC50, nM) NET
Protocol: as §1
Compounds were dissolved in 100% DMSO at a concentration 100 times the desired highest assay concentration, serially diluted 1:3 in 100% DMSO, and 1.0 μl/well of each solution was dispensed to a Nunc polypropylene, round bottom, 384-well plate. […] 50 μl/well of a 2× membrane preparation (0.4 mg/ml in 50 mM Tris-Cl, pH 7.5, 120 mM NaCl, 5 mM KCl) and 50 μl/well of a 2× radioligand solution (4 nM [^3H]nisoxetine in 50 mM Tris-Cl, pH 7.5, 120 mM NaCl, 5 mM KCl) were added to the well and the reaction incubated for 1 hour at room temperature. The contents of the assay plate were then transferred to a Millipore MultiscreenHTS GF/B filter plate which was pretreated with 0.5% PEI for at least one hour. The plate was vacuum filtered and washed with 7 washes of 100 μl/well 50 mM Tris-Cl, pH 7.5, 120 mM NaCl, 5 mM KCl chilled to 4° C. The filtration and washing were completed in less than 90 seconds. The plates were air-dried overnight, 12 μl/well of MicroScint scintillation fluid added, and the plates counted in a Trilux.
as §2

hDAT, sequence (Q01959 whole entry): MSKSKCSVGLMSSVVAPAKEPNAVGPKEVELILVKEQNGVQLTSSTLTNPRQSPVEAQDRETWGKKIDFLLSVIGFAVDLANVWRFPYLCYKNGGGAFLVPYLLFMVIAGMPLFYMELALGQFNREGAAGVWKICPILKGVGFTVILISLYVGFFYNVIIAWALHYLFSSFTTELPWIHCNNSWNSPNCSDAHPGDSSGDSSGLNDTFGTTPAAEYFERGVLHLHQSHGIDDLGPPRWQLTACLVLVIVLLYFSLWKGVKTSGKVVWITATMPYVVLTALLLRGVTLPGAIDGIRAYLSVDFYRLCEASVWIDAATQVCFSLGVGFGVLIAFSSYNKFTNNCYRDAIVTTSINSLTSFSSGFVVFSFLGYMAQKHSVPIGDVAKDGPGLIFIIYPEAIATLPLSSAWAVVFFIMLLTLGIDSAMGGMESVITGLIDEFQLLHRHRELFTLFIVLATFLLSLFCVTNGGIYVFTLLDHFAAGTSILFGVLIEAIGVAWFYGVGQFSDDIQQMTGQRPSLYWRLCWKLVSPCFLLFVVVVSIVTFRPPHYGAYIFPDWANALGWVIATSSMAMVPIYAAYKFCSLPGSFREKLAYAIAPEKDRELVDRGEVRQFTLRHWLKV
hSERT, sequence (P31645 whole entry): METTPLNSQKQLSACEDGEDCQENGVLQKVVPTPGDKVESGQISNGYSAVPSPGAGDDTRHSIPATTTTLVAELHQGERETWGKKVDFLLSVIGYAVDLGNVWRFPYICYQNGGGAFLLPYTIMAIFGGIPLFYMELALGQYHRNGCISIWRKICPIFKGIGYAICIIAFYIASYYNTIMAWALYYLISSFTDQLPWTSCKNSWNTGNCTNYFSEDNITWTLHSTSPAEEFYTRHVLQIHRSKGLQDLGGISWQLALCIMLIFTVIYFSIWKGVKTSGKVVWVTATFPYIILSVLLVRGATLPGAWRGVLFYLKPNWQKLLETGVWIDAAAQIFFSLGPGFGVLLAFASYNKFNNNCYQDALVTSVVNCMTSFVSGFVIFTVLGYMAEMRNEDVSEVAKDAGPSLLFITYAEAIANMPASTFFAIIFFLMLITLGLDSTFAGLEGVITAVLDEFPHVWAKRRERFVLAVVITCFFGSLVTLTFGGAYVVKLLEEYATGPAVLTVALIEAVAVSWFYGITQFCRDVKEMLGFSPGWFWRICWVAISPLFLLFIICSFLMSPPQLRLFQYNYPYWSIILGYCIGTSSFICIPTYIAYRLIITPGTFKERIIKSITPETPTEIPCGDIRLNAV
hNET, sequence (P23975 whole entry): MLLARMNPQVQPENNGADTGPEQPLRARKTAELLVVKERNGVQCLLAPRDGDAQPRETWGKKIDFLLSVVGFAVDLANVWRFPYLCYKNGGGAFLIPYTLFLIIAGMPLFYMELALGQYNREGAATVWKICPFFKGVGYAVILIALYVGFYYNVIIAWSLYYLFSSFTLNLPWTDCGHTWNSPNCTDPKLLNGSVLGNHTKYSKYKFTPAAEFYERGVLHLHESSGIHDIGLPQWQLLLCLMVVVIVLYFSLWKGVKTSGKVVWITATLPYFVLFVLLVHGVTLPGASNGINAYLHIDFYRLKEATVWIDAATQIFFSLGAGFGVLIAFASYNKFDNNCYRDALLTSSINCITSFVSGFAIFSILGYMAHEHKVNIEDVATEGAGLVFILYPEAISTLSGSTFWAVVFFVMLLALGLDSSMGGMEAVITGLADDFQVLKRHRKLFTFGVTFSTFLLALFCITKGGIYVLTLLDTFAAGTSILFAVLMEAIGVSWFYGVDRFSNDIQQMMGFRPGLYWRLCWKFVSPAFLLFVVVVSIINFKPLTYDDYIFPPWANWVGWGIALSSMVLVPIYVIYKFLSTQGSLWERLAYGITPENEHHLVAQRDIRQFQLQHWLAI

Row | Compound | IC50 (hSERT) [nM] | IC50 (hDAT) [nM] | IC50 (hNET) [nM]
1 | Fc1ccc(C23CCN(CC2)Cc2cc(Oc4ccc(C(F)(F)F)nn4)ccc23)cc1 [Example 52, 5-(4-fluorophenyl)-2,5-ethano-8-(6-(trifluoromethyl)pyridazin-3-yloxy)-2,3,4,5-tetrahydro-1H-benzo[c]azepine] | 8.9 | 42.8 | 206
2 | COc1ccc2c(c1)CN1CCC2(c2ccc(Cl)cc2)CC1 [Example 12, 5-(4-chlorophenyl)-8-methoxy-2,5-ethano-2,3,4,5-tetrahydro-1H-2-benzo[c]azepine] | 7.8 | 52 | 881
3 | Clc1ccc(C23CCN(Cc4cc(-c5ccc6ncnn6c5)ccc42)C3)cc1 (single isomer, unassigned) [3(−), 8-([1,2,4]triazolo[1,5-a]pyridin-6-yl)-5-(4-chlorophenyl)-2,5-methano-2,3,4,5-tetrahydro-1H-benzo[c]azepine] | 5.2 | 141 | 443
4 | CS(=O)(=O)c1ccc(-c2ccc3c(c2)CN2CCC3(c3ccc(Cl)cc3)C2)cc1 (racemic) [Example 9, rac-5-(4-chlorophenyl)-2,5-methano-8-(4-(methylsulfonyl)phenyl)-2,3,4,5-tetrahydro-1H-benzo[c]azepine] | 23.5 | 435 | 303
5 | N#Cc1ccc(-c2ccc3c(c2)CN2CCC3(c3ccc(Cl)cc3)C2)cc1 (racemic) [Example 8, rac-4-(5-(4-chlorophenyl)-2,5-methano-2,3,4,5-tetrahydro-1H-benzo[c]azepin-8-yl)benzonitrile] | 16.6 | 450 | 1210
6 | Oc1ccc(-c2ccc3c(c2)CN2CCC3(c3ccc(Cl)c(Cl)c3)CC2)nn1 [Example 41, 6-(5-(3,4-dichlorophenyl)-2,5-ethano-2,3,4,5-tetrahydro-1H-benzo[c]azepin-8-yl)pyridazin-3-ol] | 5 | 5.1 | 79.2
7 | Fc1ccc(C23CCN(Cc4cc(-c5ccc6ncnn6c5)ccc42)C3)cc1Cl (single isomer, unassigned) [55(+), 8-([1,2,4]triazolo[1,5-a]pyridin-6-yl)-5-(3-chloro-4-fluorophenyl)-2,5-methano-2,3,4,5-tetrahydro-1H-benzo[c]azepine] | 18.6 | 121 | 956
8 | Fc1ccc(C23CCN(CC2)Cc2cc(Oc4ccc(C(F)(F)F)nn4)ccc23)cc1F [Example 51, 5-(3,4-difluorophenyl)-2,5-ethano-8-(6-(trifluoromethyl)pyridazin-3-yloxy)-2,3,4,5-tetrahydro-1H-benzo[c]azepine] | 20.2 | 63.2 | 231
9 | Nc1cnc(Oc2ccc3c(c2)CN2CCC3(c3ccc(Cl)cc3)CC2)cn1 [Example 34, 5-(5-(4-chlorophenyl)-2,5-ethano-2,3,4,5-tetrahydro-1H-benzo[c]azepin-8-yloxy)pyrazin-2-amine] | 2.3 | 104 | 430
10 | Clc1ccc(C23CCN(CC2)Cc2cc(OCCCc4ccncc4)ccc23)cc1 [Example 35, 5-(4-chlorophenyl)-2,5-ethano-8-(3-(pyridin-4-yl)propoxy)-2,3,4,5-tetrahydro-1H-benzo[c]azepine] | 4.2 | 205 | 54.8
11 | O=c1[nH]c2ccc(-c3ccc4c(c3)CN3CCC4(c4ccc(Cl)c(Cl)c4)C3)cc2o1 (single isomer, unassigned) [11(+), 8-(2-oxo-2,3-dihydrobenzo[d]oxazol-6-yl)-5-(3,4-dichlorophenyl)-2,5-methano-2,3,4,5-tetrahydro-1H-benzo[c]azepine] | 3.5 | 50 | 369
12 | Clc1ccc(C23CCN(CC2)Cc2cc(Oc4cnccn4)ccc23)cc1 [Example 33, 5-(4-chlorophenyl)-2,5-ethano-8-(pyrazin-2-yloxy)-2,3,4,5-tetrahydro-1H-benzo[c]azepine] | 6.1 | 116 | 910
13 | Oc1ccc(-c2ccc3c(c2)CN2CCC3(c3ccc(Cl)cc3)C2)nn1 (single isomer, unassigned) [7(+), 6-(5-(4-chlorophenyl)-2,5-methano-2,3,4,5-tetrahydro-1H-benzo[c]azepin-8-yl)pyridazin-3-ol] | 62.5 | 148 | 674
14 | COc1ccc(-c2ccc3c(c2)CN2CCC3(c3ccc(Cl)c(Cl)c3)CC2)nn1 [Example 40, 5-(3,4-dichlorophenyl)-8-(6-methoxypyridazin-3-yl)-2,5-ethano-2,3,4,5-tetrahydro-1H-benzo[c]azepine] | 9.8 | 5.9 | 148
15 | c1cc(C23CCN(CC2)Cc2cc(N4CCOCC4)ccc23)ccc1N1CCOCC1 [Example 29, 4-(2,5-ethano-5-(4-morpholinophenyl)-2,3,4,5-tetrahydro-1H-benzo[c]azepin-8-yl)morpholine] | 328 | 5260 | 5460
16 | Clc1ccc(C23CCN(Cc4cc(-c5ccc6ncnn6c5)ccc42)C3)cc1Cl (single isomer, unassigned) [10(+), 8-([1,2,4]triazolo[1,5-a]pyridin-6-yl)-5-(3,4-dichlorophenyl)-2,5-methano-2,3,4,5-tetrahydro-1H-benzo[c]azepine] | 4.6 | 49.5 | 242
17 | FC(F)Oc1ccc2c(c1)CN1CCC2(c2ccc(Cl)c(Cl)c2)CC1 [Example 46, 5-(3,4-dichlorophenyl)-2,5-ethano-8-(difluoromethoxy)-2,3,4,5-tetrahydro-1H-benzo[c]azepine] | 3 | 55.2 | 140
18 | O=c1n(-c2ccc3c(c2)CN2CCC3(c3ccc(Cl)cc3)CC2)nc2ccccn12 [Example 23, 2-(5-(4-chlorophenyl)-2,5-ethano-2,3,4,5-tetrahydro-1H-benzo[c]azepin-8-yl)-[1,2,4]triazolo[4,3-a]pyridin-3(2H)-one] | 1.5 | 37.5 | 176

— patent US9045468B2, “2,5-methano- and 2,5-ethano-tetrahydrobenzazepine derivatives and use thereof to block reuptake of norepinephrine, dopamine, and serotonin” (Albany Molecular Research, Inc., priority 2010, dated 2015)
